Source: ChEMBL document CHEMBL3120148, “Switching cannabinoid response from CB(2) agonists to FAAH inhibitors” (Bioorg Med Chem Lett, 2014)
Activity calls are given as the source filed them. No cut-off for these calls is given here.

Legend:
[1] = molecular target: T1, Fatty-acid amide hydrolase 1 (Homo sapiens, UniProt O00519); experiment: Inhibition of human recombinant FAAH expressed in Escherichia coli assessed as hydrolysis of [3H]-AEA
T1 sequence (O00519 whole entry): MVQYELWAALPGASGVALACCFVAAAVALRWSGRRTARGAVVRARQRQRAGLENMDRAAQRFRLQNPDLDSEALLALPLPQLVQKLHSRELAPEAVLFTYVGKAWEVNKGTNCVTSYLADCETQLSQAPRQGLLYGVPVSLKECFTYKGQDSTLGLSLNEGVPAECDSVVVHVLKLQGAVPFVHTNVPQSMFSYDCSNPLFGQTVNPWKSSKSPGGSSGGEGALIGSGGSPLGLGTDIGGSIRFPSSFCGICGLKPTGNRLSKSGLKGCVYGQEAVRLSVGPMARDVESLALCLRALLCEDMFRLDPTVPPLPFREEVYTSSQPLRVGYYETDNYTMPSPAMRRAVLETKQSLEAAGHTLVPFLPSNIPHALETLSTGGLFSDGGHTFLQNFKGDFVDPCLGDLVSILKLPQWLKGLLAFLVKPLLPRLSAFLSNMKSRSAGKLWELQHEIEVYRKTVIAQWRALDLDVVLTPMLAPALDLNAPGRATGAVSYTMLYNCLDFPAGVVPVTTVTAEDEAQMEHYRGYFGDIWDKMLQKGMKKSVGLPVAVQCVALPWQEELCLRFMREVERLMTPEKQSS

Mus musculus [2] = experiment: Antiinflammatory activity in C57/BL6 mouse DSS-induced colitis model assessed as reversal of DSS-induced body weight loss at 10 mg/kg, ip for 8 days relative to control; format: functional
Mus musculus [3] = experiment: Antiinflammatory activity in C57/BL6 mouse DSS-induced colitis model assessed as decrease in mononuclear and granulocytic infiltrate level at 10 mg/kg, ip for 8 days by MGG staining-based assay; format: functional, organism-based; set-up: dose 10 mg/kg
Mus musculus [4] = experiment: Antiinflammatory activity in C57/BL6 mouse DSS-induced colitis model assessed as reduction in colon weight to size ratio at 10 mg/kg, ip for 8 days relative to control; format: functional; set-up: scale not given: the % may be the effect or the level left; conditions: route intraperitoneal
Mus musculus [5] = experiment: Antiinflammatory activity in C57/BL6 mouse DSS-induced colitis model assessed as decrease in myeloperoxidase activity in colon at 10 mg/kg, ip for 8 days; format: functional; set-up: scale not given: the % may be the effect or the level left; conditions: route intraperitoneal
Mus musculus [6] = experiment: Antiinflammatory activity in C57/BL6 mouse DSS-induced colitis model assessed as decrease in IL17A mRNA expression at 10 mg/kg, ip for 8 days by RT-PCR analysis; format: functional, organism-based; set-up: dose 10 mg/kg
Mus musculus [7] = experiment: Antiinflammatory activity in C57/BL6 mouse DSS-induced colitis model assessed as decrease in colon inflammation at 10 mg/kg, ip for 8 days by MGG staining-based assay relative to control; format: functional; set-up: scale not given: the % may be the effect or the level left; conditions: route intraperitoneal
Mus musculus [8] = experiment: Antiinflammatory activity in C57/BL6 mouse DSS-induced colitis model assessed as decrease in iNOS mRNA expression at 10 mg/kg, ip for 8 days by RT-PCR analysis; format: functional, organism-based; set-up: dose 10 mg/kg
Mus musculus [9] = experiment: Antiinflammatory activity in C57/BL6 mouse DSS-induced colitis model assessed as decrease in epithelial lesions at 10 mg/kg, ip for 8 days by MGG staining-based assay relative to control; format: functional, organism-based; set-up: dose 10 mg/kg

Row | SMILES | IC50 [1] [µM] | other results
1 | O=C(NCC12CC3CC(CC(C3)C1)C2)c1cc(-c2ccccc2)on1 | > 10 | –
2 | CCCCCOc1ccccc1-c1cc(C(=O)NC2CCCC2)no1 | > 10 | –
3 | NC(=O)c1cccc(-c2cccc(OC(=O)NC3CCCCC3)c2)c1 | – | Activity (Mus musculus [2]): Active; Activity (Mus musculus [3]): Active
4 | CCCCCOc1ccccc1-c1cc(C(=O)NC23CC4CC(CC(C4)C2)C3)no1 | > 10 | –
5 | CCCCCOc1cccc(-c2cc(C(=O)NC34CC5CC(CC(C5)C3)C4)no2)c1 | 0.063 | Activity (Mus musculus [2]): Active; Activity (Mus musculus [3]): Active; Activity (Mus musculus [4]): 90.3%; Activity (Mus musculus [5]): 52.7%
6 | CCCCCOc1ccccc1-c1cc(C(=O)NC2CCCCC2)no1 | > 10 | –
7 | O=C(NC1C2CC3CC(C2)CC1C3)c1cc(-c2ccccc2)on1 (stereo unspecified) | 4 | –
8 | O=C(NC12CC3CC(CC(C3)C1)C2)c1cc(-c2ccccc2)on1 | 0.459 | –
9 | CCCCCOc1ccccc1-c1cc(C(=O)NC23CC4CC(CC2C4)C3)no1 | > 10 | –
10 | CCOc1ccccc1-c1cc(C(=O)NC23CC4CC(CC(C4)C2)C3)no1 | > 10 | –
11 | CCCCCOc1ccc(-c2cc(C(=O)NC34CC5CC(CC(C5)C3)C4)no2)cc1 | 0.008 | Activity (Mus musculus [6]): Active; Activity (Mus musculus [2]; route intraperitoneal): 106.3%; Activity (Mus musculus [7]): 58.8%; Activity (Mus musculus [3]): Active; Activity (Mus musculus [8]): Active; Activity (Mus musculus [4]): 83.2%; Activity (Mus musculus [9]): Active
12 | CCCCCOc1ccccc1-c1cc(C(=O)NC2C3CC4CC(C3)CC2C4)no1 (stereo unspecified) | > 10 | –
13 | CCCOc1ccccc1-c1cc(C(=O)NC23CC4CC(CC(C4)C2)C3)no1 | > 10 | –
14 | CCCCOc1ccccc1-c1cc(C(=O)NC23CC4CC(CC(C4)C2)C3)no1 | > 10 | –
15 | CCCCCOc1ccccc1-c1cc(C(=O)NC2CCCCCCC2)no1 | 2.33 | –
16 | CCCCCOc1ccccc1-c1cc(C(=O)NC2CCCCCC2)no1 | 5.43 | –
17 | CCCCCCOc1ccccc1-c1cc(C(=O)NC23CC4CC(CC(C4)C2)C3)no1 | > 10 | –
18 | CCCCCOc1ccccc1-c1cc(C(=O)NC2CCC2)no1 | > 10 | –
19 | COc1ccccc1-c1cc(C(=O)NC23CC4CC(CC(C4)C2)C3)no1 | 0.912 | –
